According to publication PMC8065987, “Identification of Anti-Inflammatory and Anti-Proliferative Neolignanamides from Warburgia ugandensis Employing Multi-Target Affinity Ultrafiltration and LC-MS” (Pharmaceuticals, 2021):
Like-named read-outs stand apart in the source and are kept apart here.

How the values were obtained:
[1] = target: T1, COX-2 (Homo sapiens, UniProt P35354); assay: Affinity ultrafiltration HPLC-MS/MS (AUF-HPLC-MS/MS) of WE-P with COX-2; design: purchased Wuhan Antgene Biotechnology Co., Ltd. (Wuhan, China); conditions: relative binding strength = Aactive/Asample × 100%; peak in WE-P; n = 3
T1 sequence (P35354 18-604): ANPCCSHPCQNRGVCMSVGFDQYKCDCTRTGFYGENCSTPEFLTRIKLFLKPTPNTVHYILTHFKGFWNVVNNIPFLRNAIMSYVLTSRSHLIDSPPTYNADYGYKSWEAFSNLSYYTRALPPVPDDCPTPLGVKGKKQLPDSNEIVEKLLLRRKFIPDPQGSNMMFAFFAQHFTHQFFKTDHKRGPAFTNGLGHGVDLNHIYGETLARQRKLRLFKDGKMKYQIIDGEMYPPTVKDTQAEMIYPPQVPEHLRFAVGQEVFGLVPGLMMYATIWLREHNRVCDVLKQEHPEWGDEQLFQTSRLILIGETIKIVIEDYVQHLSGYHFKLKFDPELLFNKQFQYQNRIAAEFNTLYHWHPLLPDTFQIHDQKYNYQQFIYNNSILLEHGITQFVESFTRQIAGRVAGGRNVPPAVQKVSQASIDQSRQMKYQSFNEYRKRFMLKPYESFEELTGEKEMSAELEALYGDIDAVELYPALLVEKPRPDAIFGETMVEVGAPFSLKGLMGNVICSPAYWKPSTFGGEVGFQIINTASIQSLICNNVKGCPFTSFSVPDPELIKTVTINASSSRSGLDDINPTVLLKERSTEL
Method: (§1) The relative binding strength (RBS) was employed to compare the variation of the correlated peak areas in the AUF-HPLC-UV chromatograms before and after incubation with enzymes to evaluate the affinity binding abilities between potential ligands and target enzymes. The RBS formula is expressed as: RBS = (Aactive/Asample) × 100%, where the Aactive represents the peak areas obtained from the WE-P samples incubated with COX-2, 5-LOX, Top I or Top II, respectively; the Asample represents the peak areas obtained from WE-P samples without ultrafiltration. […] Namely, the special binding capacities of peak 2 with COX-2, 5-LOX, Top I and Top II might be stronger than that of peak 1. […] Therefore, it could be preliminarily estimated that peak 1 and peak 2 were the main bioactive components in WE-P which were closely related to its anti-inflammatory and anti-proliferative activities. These compounds were then identified based on their MS/MS data, related references and NMR or UPLC-QTOF-MS/MS data of isolated compounds, and the results are shown in Table 2.
(§2) Affinity ultrafiltration screening was slightly modified and carried out according to some previous studies. Firstly, approximately 100 µL of WE-P (10.0 mg/mL) were incubated with 10 µL of enzymes (2 U, COX-2, 5-LOX, Top I or Top II), and 90 µL of Tris-HCl (pH = 7.8) at 37 °C in the darkness for 1 h. […]

[2] = test system: Top II; assay: Affinity ultrafiltration HPLC-MS/MS (AUF-HPLC-MS/MS) of WE-P with Top II; conditions: relative binding strength = Aactive/Asample × 100%; peak in WE-P; n = 3
Method: as §1, §2

[3] = target: T2, 5-LOX (Homo sapiens, UniProt P09917); assay: Affinity ultrafiltration HPLC-MS/MS (AUF-HPLC-MS/MS) of WE-P with 5-LOX; conditions: relative binding strength = Aactive/Asample × 100%; peak in WE-P; n = 3
T2 construct: purchased Cayman Chemical Co., Ltd. (Ann Arbor, MI, USA)
T2 sequence (P09917 1-674): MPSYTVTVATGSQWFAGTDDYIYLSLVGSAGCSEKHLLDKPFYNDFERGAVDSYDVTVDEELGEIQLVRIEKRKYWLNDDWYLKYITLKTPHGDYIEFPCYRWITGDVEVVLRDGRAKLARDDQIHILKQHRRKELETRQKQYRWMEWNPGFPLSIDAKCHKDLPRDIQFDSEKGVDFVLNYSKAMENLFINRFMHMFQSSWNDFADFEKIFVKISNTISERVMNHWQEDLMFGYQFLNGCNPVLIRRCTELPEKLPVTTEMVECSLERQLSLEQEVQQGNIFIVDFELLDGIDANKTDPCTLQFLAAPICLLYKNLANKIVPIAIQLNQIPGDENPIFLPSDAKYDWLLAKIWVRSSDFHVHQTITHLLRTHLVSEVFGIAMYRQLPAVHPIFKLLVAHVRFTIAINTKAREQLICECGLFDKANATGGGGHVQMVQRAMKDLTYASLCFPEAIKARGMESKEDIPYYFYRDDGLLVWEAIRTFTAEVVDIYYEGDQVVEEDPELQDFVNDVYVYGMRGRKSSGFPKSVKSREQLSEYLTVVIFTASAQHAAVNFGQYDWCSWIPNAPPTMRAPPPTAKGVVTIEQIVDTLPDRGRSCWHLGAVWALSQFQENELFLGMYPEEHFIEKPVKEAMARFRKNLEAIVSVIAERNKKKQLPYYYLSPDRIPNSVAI
Method: as §1, §2

[4] = test system: A549 cells; assay: Cell proliferative assay (SRB), A549; format: cell-based; conditions: Homo sapiens, 48 h, read-out: Anti-proliferative IC50, A549 cells
Method: (§3) Human non-small cell lung adenocarcinoma cell line (A549) and human cervical cancer cell line (Hela) were obtained from the American Type Culture Collection (ATCC, Manassas, VA, USA) and maintained in Ham’s F-12K medium supplemented with 10% fetal bovine serum (FBS), 1% penicillin, and 1% streptomycin in a cell incubator under humidified conditions with 5% CO2 at 37 °C, and the procedures were slightly modified from previous method. To evaluate the proliferative activity of A549 cell line and Hela cell line, the SRB assay was carried out according to the manufacturer’s instructions (Beyotime, Shanghai, China). Briefly, these two cell lines were seeded into 96-well plates at a density of 1.0 × 10^4 per well. After 24 h incubation, the tested samples were dissolved in the DMSO and sequentially diluted with cell culture medium and added to each well at the specified concentrations. Cell viability was assessed by SRB 48 h later. Absorbances was measured by a Tecan microplate reader (Tecan Infinite M200 Pro, Tecan Group Ltd., Männedorf, Switzerland) at a wavelength of 540 nm. The experiments were performed in triplicate. The anti-proliferative activities were expressed as IC50. […] The data were expressed as mean ± standard deviation (SD) of three replicates.

[5] = test system: Top I; assay: Affinity ultrafiltration HPLC-MS/MS (AUF-HPLC-MS/MS) of WE-P with Top I; conditions: relative binding strength = Aactive/Asample × 100%; peak in WE-P; n = 3
Method: as §1, §2

[6] = test system: Hela cells; assay: Cell proliferative assay (SRB), Hela; format: cell-based; conditions: Homo sapiens, 48 h, read-out: Anti-proliferative IC50, Hela cells
Method: as §3

[7] = target: T1, COX-2; assay: In vitro COX-2 inhibitory assay (COX-2 (human) inhibitor screening assay kit, fluorescence); format: biochemical; design: purchased Beyotime Biotechnology (Shanghai, China) S0168; conditions: triplicate; read-out: COX-2 inhibition IC50 (isolated compounds)
Method: Thirdly, 10 µL COX-2 probe was added into each well. […] The experiments were performed in triplicate.

[8] = test system: human colorectal adenocarcinoma (Caco-2) cells; design: method as in PMID 27504537; conditions: inactive or poorly active; cited from earlier work
[9] = test system: LNCaP human prostate cancer cell; design: method as in PMID 11858758; conditions: previous study; cited from earlier work
[10] = test system: A549 cells; design: method as in PMID 33301798; conditions: previous study; read-out: Anti-proliferative IC50, A549 cells; cited from earlier work
[11] = test system: human mammary adenocarcinoma (MCF-7) cells; design: method as in PMID 33301798; conditions: previous study; read-out: Anti-proliferative IC50, MCF-7 cells; cited from earlier work
[12] = test system: MCF-7; design: method as in PMID 27504537; conditions: 72 h; read-out: GI50 (the 50% growth inhibition in 72 h), MCF-7; cited from earlier work
[13] = test system: RAW 264.7 cell line; design: method as in doi:10.1016/j.phytol.2019.01.020; conditions: LPS-stimulated RAW 264.7; read-out: Inhibition of NO production IC50; cited from earlier work
[14] = test system: Hela cell line; design: method as in PMID 32212861; conditions: previous study; cited from earlier work
[15] = test system: Hela cells; design: method as in PMID 33301798; conditions: previous study; read-out: Anti-proliferative IC50, Hela cells; cited from earlier work
[16] = test system: human prostate cancer (PC-3) cells; design: method as in PMID 27504537; conditions: 72 h; read-out: GI50 (the 50% growth inhibition in 72 h), PC-3; cited from earlier work
[17] = test system: human peripheral blood mononuclear cells (PBMCs) stimulated by lipopolysaccharide (LPS); design: method as in PMID 32877711; conditions: 100 µM; cited from earlier work

Compound	UF-RBS (%) COX-2 [1] [%]	UF-RBS (%) Top II [2] [%]	UF-RBS (%) 5-LOX [3] [%]	IC50 [4] [µM]	UF-RBS (%) Top I [5] [%]	IC50 [6] [µM]	IC50 [7] [µM]	GI50 [8] [µM]	Cytotoxicity in cultured LNCaP cells [9]	IC50 [10] [µM]	IC50 [11] [µM]	GI50 [12] [µM]	IC50 [13] [µM]	Anti-proliferative activity on Hela cell line [14]	IC50 [15] [µM]	GI50 [16] [µM]	Release of GM-CSF [17]	Release of IL-1β [17]	Release of IL-2 [17]	Release of TNF-α [17]
COc1cc(C2Oc3c(OC)cc(/C=C\C(=O)NCCc4ccc(O)cc4)cc3C2C(=O)NCCc2ccc(O)cc2)ccc1O (stereo not drawn) [Compound 1, N-cis-grossamide]	20.15 ± 0.12	24.53 ± 1.54	16.74 ± 0.65	> 100	34.25 ± 2.81	84.4 ± 1.79	4.41 ± 0.249	–	–	–	–	–	–	–	–	–	–	–	–	–
COc1cc(C2Oc3c(OC)cc(/C=C/C(=O)NCCc4ccc(O)cc4)cc3C2C(=O)NCCc2ccc(O)cc2)ccc1O (stereo not drawn) [Compound 2, N-trans-grossamide]	27.39 ± 1.58	58.57 ± 3.82	42.00 ± 1.26	> 100	76.2 ± 5.20	72.8 ± 0.839	1.95 ± 0.381	> 100	moderate cytotoxicity	13.5 ± 3.66	11.4 ± 1.62	24	52.5 ± 6.1	moderate anti-proliferative activity	20.1 ± 3.05	21	1.61 % of LPS control	2.14 % of LPS control	11.61 % of LPS control	0.06 % of LPS control
